The conditions of data set [1]: background description; cited from earlier work.
For data set [2] the following is noted: co-micronized with sugar alcohols, from entacapone, levodopa, carbidopa formulation vs not co-micronized.
The conditions of data set [3]: background description; cited from earlier work. This is another data set of the same source.

These results are taken from patent US9089485B2, “Pharmaceutical compositions of entacapone, levodopa and carbidopa with improved bioavailability” (Wockhardt Ltd., priority 2008, dated 2015).

As for `C[C@@](Cc1ccc(O)c(O)c1)(NN)C(=O)O` [Carbidopa, (−)-L-(α-hydrazino-(α-methyl-β-(3,4-dihydroxybenzene)propanoic acid monohydrate], in data set [1], the Solubility in water result is “slightly soluble”.
In the case of `CCN(CC)C(=O)/C(C#N)=C/c1cc(O)c(O)c([N+](=O)[O-])c1` [Entacapone, (E)-2-cyano-3-(3,4-dihydroxy-5-nitrophenyl)-N,N-diethyl-2-propenamide], in data set [2], the “Change in percent drug release of entacapone” value is “significant increase”. In addition, the “Biopharmaceutics Classification system class” value in data set [3] is “class IV”.
For the compound `N[C@@H](Cc1ccc(O)c(O)c1)C(=O)O` [Levodopa, (−)-L-α-amino-β-(3,4-dihydroxybenzene) propanoic acid], the Solubility in water entry in data set [1] is on record as “slightly soluble”.
